Experimental findings from patent US12643887B2, “Heterocyclic derivatives with cardiomyocyte proliferation activity for treatment of heart diseases” (Tongji University, priority 2019, dated 2026) are described below.

Assay [1] concerns the target T1, human DYRK1A (Homo sapiens, UniProt Q13627).
T1 construct: Recombinant full-length DYRK1A (expressed in E. Coli cells with an N-terminal GST tag); GST (N); purchased SignalChem D09-10G; host or cells: E. coli
Description: DYRK1A enzyme assay (ADP-Glo). Type of assay: biochemical. The settings on record: ADP-Glo, ATP 60 μM; read-out: DYRK1A IC50. The protocol: The ability of compounds to inhibit human DYRK1A kinase activities was determined using a commercially available ADP-Glo™ Kinase Assay kit (Promega, Cat #V9102) according to the manufacturer's protocol.
Recombinant full-length DYRK1A (expressed in E. Coli cells with an N-terminal GST tag) was purchased from SignalChem (Cat #D09-10G). The DYRK substrate peptide (DYRKtide, sequence: […]) was purchased from SignalChem (Cat #D96-58). This assay, run in a 384-well plate format, is a generic method for measuring kinase activities using an ADP-Glo Kinase Assay Kit. The basic assay procedure involves two steps: (1) Enzymatic step: inhibitors are incubated with the kinase and then ATP (included in the ADP-Glo Kinase Assay Kit) and the DYRKtide are added to start the enzymatic reaction; (2) Detection step: after the kinase reaction, first ADP-Glo™ Reagent is added to terminate the kinase reaction and deplete the remaining ATP. Second, the Kinase Detection Reagent is added to simultaneously convert ADP to ATP and allow the newly synthesized ATP to be measured using a luciferase/luciferin reaction. The light generated is measured using a luminometer.
Briefly, DYRK1A (3 nM) in the enzymatic buffer solutions (40 mM Tris, pH 7.5, 20 mM MgCl2, 0.1 mg/ml BSA, 50 μM DTT) were mixed with various concentrations of inhibitors (dissolved in 100% DMSO). These solutions were incubated for 30 minutes at 25° C., and subsequently a mixture of substrate peptide and ATP was added with the final peptide and ATP concentrations at 20 μM and 60 μM, respectively. The final reaction mixture of enzyme-substrate-ATP-compound was incubated for 60 minutes at 25° C.
Afterwards ADP-Glo™ Reagent was added and the mixture was incubated at 25° C. for 60 minutes. Then Kinase Detection Reagent was added and the final mixture was incubated at 25° C. for 60 minutes. The luminescence signal of the final solution was measured on an Envision instrument (PerkinElmer). The percent (%) inhibition at each concentration of a compound is calculated relative to the luminescence signal in the Max and Min control wells contained within each assay plate. […] The concentrations and percent inhibition values for a test compound are plotted and the concentration of the compound required to achieve 50% inhibition (IC50) is determined with a four-parameter logistic dose response equation.
Background: In ADP-Glo the light output rises with the ADP produced.

Assay [2] concerns the target T2, human HIPK2 (Homo sapiens, UniProt Q9H2X6).
T2 construct: Recombinant human HIPK2 (1-640); GST (N); purchased SignalChem H04-11BG; host or cells: Sf9 insect cells
Description: HIPK2 enzyme assay (ADP-Glo). As to conditions: ADP-Glo, ATP 5 μM; read-out: HIPK2 IC50. Type of assay: biochemical. The method, then: The ability of compounds to inhibit human HIPK2 kinase activities was determined using a commercially available ADP-Glo™ Kinase Assay kit (Promega, Cat #V9102) according to the manufacturer's protocol.
Recombinant human HIPK2 (1-640) (expressed in Sf9 insect cells with an N-terminal GST tag) was purchased from SignalChem (Cat #H04-11BG). Recombinant full length human MBP (expressed in E. Coli cells with an N-terminal GST tag) was purchased from SignalChem (Cat #M42-54G). This assay, run in a 384-well plate format, is a generic method for measuring kinase activities using an ADP-Glo Kinase Assay Kit. The basic assay procedure involves two steps: (1) Enzymatic step: inhibitors are incubated with the kinase and then ATP (included in the ADP-Glo Kinase Assay Kit) and the MBP protein are added to start the enzymatic reaction; (2) Detection step: after the kinase reaction, first ADP-Glo™ Reagent is added to terminate the kinase reaction and deplete the remaining ATP. Second, the Kinase Detection Reagent is added to simultaneously convert ADP to ATP and allow the newly synthesized ATP to be measured using a luciferase/luciferin reaction. The light generated is measured using a luminometer.
Briefly, HIPK2 (1 nM) in the enzymatic buffer solutions (40 mM Tris, pH 7.5, 20 mM MgCl2, 0.1 mg/ml BSA, 50 μM DTT) were mixed with various concentrations of inhibitors (dissolved in 100% DMSO). These solutions were incubated for 30 minutes at 25° C., and subsequently a mixture of substrate peptide and ATP was added with the final peptide and ATP concentrations at 0.05 mg/ml and 5 μM, respectively. The final reaction mixture of enzyme-substrate-ATP-compound was incubated for 90 minutes at 25° C.
Afterwards ADP-Glo™ Reagent was added and the mixture was incubated at 25° C. for 60 minutes. Then Kinase Detection Reagent was added, and the final mixture was incubated at 25° C. for 60 minutes. The luminescence signal of the final solution was measured on an Envision instrument (PerkinElmer). The percent (%) inhibition at each concentration of a compound is calculated relative to the luminescence signal in the Max and Min control wells contained within each assay plate. […] The concentrations and percent inhibition values for a test compound are plotted and the concentration of the compound required to achieve 50% inhibition (IC50) is determined with a four-parameter logistic dose response equation.

As a reminder, the IC50 is the concentration that gives 50% inhibition.

Structures are written as SMILES.

T2 sequence (Q9H2X6 1-640): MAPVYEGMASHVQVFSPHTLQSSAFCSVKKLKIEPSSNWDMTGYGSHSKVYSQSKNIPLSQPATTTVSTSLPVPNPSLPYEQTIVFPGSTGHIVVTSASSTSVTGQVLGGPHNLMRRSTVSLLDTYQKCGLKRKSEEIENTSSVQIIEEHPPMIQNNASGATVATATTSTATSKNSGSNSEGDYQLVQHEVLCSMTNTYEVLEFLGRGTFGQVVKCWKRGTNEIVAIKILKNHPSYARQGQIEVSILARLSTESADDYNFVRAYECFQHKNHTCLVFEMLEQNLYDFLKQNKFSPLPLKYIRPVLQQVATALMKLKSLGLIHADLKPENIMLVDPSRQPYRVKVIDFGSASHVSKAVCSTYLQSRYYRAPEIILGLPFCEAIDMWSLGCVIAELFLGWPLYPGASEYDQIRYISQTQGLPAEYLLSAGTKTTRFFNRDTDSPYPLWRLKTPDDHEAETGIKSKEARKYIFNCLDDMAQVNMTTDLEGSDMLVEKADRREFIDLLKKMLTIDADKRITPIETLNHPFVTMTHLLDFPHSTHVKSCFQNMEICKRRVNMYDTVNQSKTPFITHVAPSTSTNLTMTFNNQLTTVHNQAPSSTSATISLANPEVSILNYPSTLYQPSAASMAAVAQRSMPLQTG

In the case of `O=C1NC(Nc2ccccc2)=N/C1=C\c1ccc2ncccc2c1` [Example 53, (Z)-2-(phenylamino)-5-(quinolin-6-ylmethylene)-3,5-dihydro-4H-imidazol-4-one], the results for the IC50 in assay [1] and in assay [2] were below 100 nM and 100 to 1000 nM, respectively.

Regarding `CC(C)NC1=N/C(=C\c2ccc3scnc3c2)C(=O)N1` [Example 49, (Z)-5-(benzo[d]thiazol-5-ylmethylene)-2-(isopropylamino)-3,5-dihydro-4H-imidazol-4-one], the IC50 in assay [1] and in assay [2] was above 10000 nM each time.

For the compound `O=C1NC(Nc2ccc3ncsc3c2)=N/C1=C\c1ccc2cc[nH]c2c1` [Example 63, (Z)-5-((1H-indol-6-yl)methylene)-2-(benzo[d]thiazol-6-ylamino)-3,5-dihydro-4H-imidazol-4-one], the IC50 in assay [1] and in assay [2] was above 10000 nM in each case.

For the compound `O=C(O)CCN(C1=N/C(=C\c2ccc3c(c2)OCO3)C(=O)N1)c1ccccc1` [Example 27, (Z)-3-((4-(benzo[d][1,3]dioxol-5-ylmethylene)-5-oxo-4,5-dihydro-1H-imidazol-2-yl)(phenyl)amino)propanoic acid], the IC50 in assay [1] and in assay [2] was 1000 to 10000 nM each time.

For the compound `O=C1NC(Nc2ccccc2)=N/C1=C\c1ccc(=O)[nH]c1` [Example 9, (Z)-5-((5-oxo-2-(phenylamino)-1,5-dihydro-4H-imidazol-4-ylidene)methyl)pyridin-2(1H)-one], the IC50 was 100 to 1000 nM in assay [1] and above 10000 nM in assay [2].

On to `Cn1ncc2cc(/C=C3\N=C(Nc4ccccc4)NC3=O)ccc21` [Example 77, (Z)-5-((1-methyl-1H-indazol-5-yl)methylene)-2-(phenylamino)-3,5-dihydro-4H-imidazol-4-one], for which the figures for the IC50 in assay [1] and in assay [2] were below 100 nM and above 10000 nM, respectively.

As for `COc1ccc(N(C)C2=N/C(=C\c3ccc4ncsc4c3)C(=O)N2)cc1` [Example 38, (Z)-5-(benzo[d]thiazol-6-ylmethylene)-2-((4-methoxyphenyl)(methyl)amino)-3,5-dihydro-4H-imidazol-4-one], the IC50 in assay [1] was in the range of 100 to 1000 nM; in assay [2] it was 1000 to 10000 nM.

Take `O=C1NC(Nc2ccccc2)=N/C1=C\c1ccc2nccnc2c1` [Example 16, (Z)-2-(phenylamino)-5-(quinoxalin-6-ylmethylene)-3,5-dihydro-4H-imidazol-4-one]: the results for the IC50 in assay [1] and in assay [2] were below 100 nM and 1000 to 10000 nM, respectively.

For the compound `CN(CC1CC1)C1=N/C(=C\c2ccc3c(c2)OCO3)C(=O)N1` [Example 11, (Z)-5-(benzo[d][1,3]dioxol-5-ylmethylene)-2-((cyclopropylmethyl)(methyl)amino)-3,5-dihydro-4H-imidazol-4-one], the IC50 in assay [1] is 100 to 1000 nM; in assay [2], above 10000 nM.

`CN(C1=N/C(=C\c2ccc3ncsc3c2)C(=O)N1)c1ccccc1` [Example 7, (Z)-5-(benzo[d]thiazol-6-ylmethylene)-2-(methyl(phenyl)amino)-3,5-dihydro-4H-imidazol-4-one]: the figures for the IC50 in assay [1] and in assay [2] were 100 to 1000 nM and 1000 to 10000 nM, respectively.

As to `Cn1cnc2ccc(/C=C3\N=C(Nc4ccc5ncsc5c4)NC3=O)cc21` [Example 75, (Z)-2-(benzo[d]thiazol-6-ylamino)-5-((1-methyl-1H-benzo[d]imidazol-6-yl)methylene)-3,5-dihydro-4H-imidazol-4-one], the IC50 in assay [1] and in assay [2] was below 100 nM in each case.

Turning to `CN(C1=N/C(=C\c2ccc3ncsc3c2)C(=O)N1)c1ccc(N)cc1` [Example 44, (Z)-2-((4-aminophenyl)(methyl)amino)-5-(benzo[d]thiazol-6-ylmethylene)-3,5-dihydro-4H-imidazol-4-one], the values for the IC50 in assay [1] and in assay [2] were 100 to 1000 nM and 1000 to 10000 nM, respectively.

With `O=C1NC(Nc2ccc3ncsc3c2)=N/C1=C\c1ccc2occc2c1` [Example 59, (Z)-2-(benzo[d]thiazol-6-ylamino)-5-(benzofuran-5-ylmethylene)-3,5-dihydro-4H-imidazol-4-one], the IC50 in assay [1] and in assay [2] was above 10000 nM in each case.

As for `CC(C)NC1=N/C(=C\c2ccc3ncsc3c2)C(=O)N1C` [Example 45, (Z)-5-(benzo[d]thiazol-6-ylmethylene)-2-(isopropylamino)-3-methyl-3,5-dihydro-4H-imidazol-4-one], the IC50 is 100 to 1000 nM in assay [1] and 1000 to 10000 nM in assay [2].

Regarding `NC1=N/C(=C\c2ccc3ncsc3c2)C(=O)N1` [Example 103, (Z)-2-amino-5-(benzo[d]thiazol-6-ylmethylene)-3,5-dihydro-4H-imidazol-4-one], the IC50 in assay [1] is below 100 nM; in assay [2], 100 to 1000 nM.

Regarding `CN(C1=N/C(=C\c2ccc3[nH]cnc3c2)C(=O)N1)c1ccccc1` [Example 30, (Z)-5-((1H-benzo[d]imidazol-5-yl)methylene)-2-(methyl(phenyl)amino)-3,5-dihydro-4H-imidazol-4-one], the IC50 was 1000 to 10000 nM in assay [1] and above 10000 nM in assay [2].

For the compound `NC(=O)CCN(C1=N/C(=C\c2ccc3c(c2)OCO3)C(=O)N1)c1ccccc1` [Example 36, (Z)-3-((4-(benzo[d][1,3]dioxol-5-ylmethylene)-5-oxo-4,5-dihydro-1H-imidazol-2-yl)(phenyl)amino)propanamide], the IC50 is 100 to 1000 nM in assay [1] and above 10000 nM in assay [2].

Turning to `CN(C1=N/C(=C\c2ccc3ncsc3c2)C(=O)N1)c1ccc(Cl)cc1` [Example 24, (Z)-5-(benzo[d]thiazol-6-ylmethylene)-2-((4-chlorophenyl)(methyl)amino)-3,5-dihydro-4H-imidazol-4-one], the IC50 in assay [1] and in assay [2] was 100 to 1000 nM in each case.

In the case of `O=C1NC(Nc2ccc3nc(Nc4ccccc4)sc3c2)=N/C1=C\c1ccc2ncsc2c1` [Example 104, (Z)-5-(benzo[d]thiazol-6-ylmethylene)-2-((2-(phenylamino)benzo[d]thiazol-6-yl)amino)-3,5-dihydro-4H-imidazol-4-one], the IC50 in assay [1] and in assay [2] was 1000 to 10000 nM throughout.

With `O=C1NC(Nc2ccc3ncsc3c2)=N/C1=C\c1ccc2[nH]ccc2c1` [Example 58, (Z)-5-((1H-indol-5-yl)methylene)-2-(benzo[d]thiazol-6-ylamino)-3,5-dihydro-4H-imidazol-4-one], the IC50 in assay [1] and in assay [2] was above 10000 nM throughout.

Consider `O=C1NC(Nc2ccc3ncsc3c2)=N/C1=C\c1ccc2cccnc2c1` [Example 60, (Z)-2-(benzo[d]thiazol-6-ylamino)-5-(quinolin-7-ylmethylene)-3,5-dihydro-4H-imidazol-4-one], for which the IC50 in assay [1] and in assay [2] was above 10000 nM each time.

Turning to `Cn1cnc2cc(/C=C3\N=C(Nc4ccccc4)NC3=O)ccc21` [Example 71, (Z)-5-((1-methyl-1H-benzo[d]imidazol-5-yl)methylene)-2-(phenylamino)-3,5-dihydro-4H-imidazol-4-one], the half-maximal inhibitory concentration (IC50) in assay [1] and in assay [2] was above 10000 nM in each case.
